Results on 4 molecules are retold here after patent US20060276393A1, “Novel compositions for preventing and treating neurodegenerative and blood coagulation disorders” (Sirtris Pharmaceuticals, Inc., priority 2005, published 2006).

One test deals with T1, recombinant human SIRT1 (Homo sapiens, UniProt Q96EB6).
T1 sequence (Q96EB6 1-747): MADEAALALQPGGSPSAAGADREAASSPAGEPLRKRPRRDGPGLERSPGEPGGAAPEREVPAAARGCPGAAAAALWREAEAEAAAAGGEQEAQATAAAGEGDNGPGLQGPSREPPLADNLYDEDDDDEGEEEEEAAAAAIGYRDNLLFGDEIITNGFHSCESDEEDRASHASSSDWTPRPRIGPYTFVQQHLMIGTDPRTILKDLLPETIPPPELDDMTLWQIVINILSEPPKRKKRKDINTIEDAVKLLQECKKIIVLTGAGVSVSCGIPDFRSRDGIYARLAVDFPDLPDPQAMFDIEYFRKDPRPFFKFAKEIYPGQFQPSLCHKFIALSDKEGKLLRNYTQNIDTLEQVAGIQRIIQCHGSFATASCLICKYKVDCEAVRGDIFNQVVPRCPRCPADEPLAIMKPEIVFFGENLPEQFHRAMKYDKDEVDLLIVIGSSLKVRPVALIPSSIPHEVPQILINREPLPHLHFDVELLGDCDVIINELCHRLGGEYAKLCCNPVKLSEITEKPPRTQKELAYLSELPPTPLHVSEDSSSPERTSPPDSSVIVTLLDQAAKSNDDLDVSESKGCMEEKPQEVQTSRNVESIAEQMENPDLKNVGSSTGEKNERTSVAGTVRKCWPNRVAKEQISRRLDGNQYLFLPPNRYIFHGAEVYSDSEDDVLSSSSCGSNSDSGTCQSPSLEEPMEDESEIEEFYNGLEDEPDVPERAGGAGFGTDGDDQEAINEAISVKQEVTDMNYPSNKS
In words: SIRT1 fluorescent deacetylation assay (p53-382 acetylated peptide). Type of test: biochemical. As to conditions: 25 μM NAD+, 25 μM p53-382 acetylated peptide, compounds at 100 μM. From the text: Lines represent non-linear least-squares fits to the Michaelis-Menten equation. […] Lines represent non-linear least-squares fits to the Michaelis-Menten equation. […] Error bars are standard errors of the mean.
To identify compounds that modulate SIRT1 activity, a number of small molecule libraries were screened using a fluorescent deacetylation assay in 96-well plates^26. The substrate used in the assay was a fluorogenic peptide based on the sequence encompassing the p53-K382 acetylation site, a known target of SIRT1 in vivo^20,21,27. […] The small molecule libraries included analogues of nicotinamide, ε-acetyl lysine, NAD^+, nucleotides, nucleotide analogues and purinergic ligands.
His6-tagged recombinant SIRT1 and GST-tagged recombinant Sir2 were prepared as previously described^26. From 0.1 to 1 μg of SIRT1 and 1.5 μg of Sir2 were used per deacetylation assay (in 50 μl total reaction) as previously described^26.
Themed compound libraries (BIOMOL) were used for primary and secondary screening. Most polyphenol compounds were dissolved at 10 mM in dimethylsulfoxide (DMSO) on the day of the assay. For water soluble compounds and negative controls, 1% v/v DMSO was added to the assay. […] Unless otherwise indicated all initial rate measurements were means of three or more replicates, obtained with single incubation times, at which point 5% or less of the substrate initially present had been deacetylated. Calculation of net fluorescence increases included subtraction of a blank value, which in the case of Sir2 was obtained by omitting the enzyme from the reaction and in the case of SIRT1 by adding an inhibitor (200 μM suramin or 1 mM nicotinamide) to the reaction prior to the acetylated substrate. […] All error bars represent the standard error of the mean.

For a further test, the system named is C. elegans. The test is described as follows: C. elegans lifespan. The format is in vivo. To be noted: N2 worms, E. coli as food. Here is the method: Thus, the presence of resveratrol in the growth media of C. elegans extends their lifespan.
Bristol N2 (Caenorhabditis Genetics Center) was used as the wild-type strain. The sir-2.1 mutant strain was generated by backcrossing VC199 (sir-2.1(ok434)) to N2 four times. Cultures were grown on standard NGM media and maintained on E. coli strain OP50. For the lifespan assays, synchronized animals were transferred to treatment plates as young adults (2 d after hatching, day 0 of assay), and were transferred to fresh treatment plates every 2 days for the first 6 to 8 days of the assay. […] For some lifespan trials, heat-killed OP50 were used as a food source. OP50 cultures were heated to 65° C. for 30 minutes, then pelleted and resuspended in 1/10 volume in S Basal supplemented with 10 mM MgSO4. In all assays, worms were monitored daily for mortality by gently probing with a platinum pick. Assays were performed at 24° C. To assay worm feeding rates, worms at the indicated stages were placed on treatment plates (no FUdR) for 4-5 hours, then videoed for 1 minute using a Pixelink PL-662 camera. The frame rate was slowed and the pumping rate of the pharynx was counted. To assay fecundity, gravid hermaphrodites (5 per plate, raised from synchronized L1s on normal or treatment plates) were allowed to lay eggs on their respective media for 5 hours, and the total number of eggs was counted.

In test [1] the target is T2, SIRT1 deacetylase (BIOMOL) (Homo sapiens, UniProt Q96EB6).
T2 construct: purchased BIOMOL
T2 sequence (Q96EB6 1-747): T1 sequence (Q96EB6 1-747)
The test is described as follows: High-throughput SIRT1 screening protocol (ICCB library). As to conditions: positive controls; 200 μM NAD+, 5 μM Fluor de Lys-SIRT1; resveratrol 50 μM. The format is biochemical. Here is the method:
The reaction mixture contains (final): 0.5 units/reaction SIRT1 deacetylase (BIOMOL); 200 μM NAD^+; 5 μM Fluor de Lys-SIRT1 substrate (BIOMOL); buffer (25 mM Tris/Cl, pH 8.0, 137 mM NaCl, 2.7 mM KCl, 1 mM MgCl2, and 1 mg/ml BSA). In addition, a reaction mixture containing no enzyme was made so that each well receiving compound has a corresponding “no enzyme control” well. Reactions were performed in black 384 well plates (NUNC) in a final volume of 25 μl/well.
The reactions were started by combining enzyme and substrate in a reaction mixture immediately prior to aliquoting in plates (or substrate only for “no enzyme control” plates). Mixture were aliquoted to plates using Biotek μfill (Biotek Instruments). Control mixtures were manually added to designated wells. A library compound was added at a desired concentration by pin transfer to both “with enzyme” and “no enzyme” plates. Compounds were added in at least triplicate (with enzyme reaction in duplicate and no enzyme controls) at a final concentration of roughly 50 μM. The plates were incubated at 37° C for 30-60 minutes. Then 25 μl of 1× Developer II (BIOMOL) plus 2 mM nicotinamide were added to all wells to stop the reactions. The reactions were left for at least 30 minutes at 37° C. for the signal to develop. The plates were read in a microplate-reading fluorometer capable of excitation at a wavelength in the range of 350-380 nm and detection of emitted light in the range of 440-460 nm. A read time of 0.1 sec per well was used.

Test [2] has as its system thoracic spinal cord of EAE SJL/J mice. In words: EAE spinal cord white matter damage. Type of test: in vivo, mouse. As to conditions: FK506 5 mg/kg, significant. From the text: At day 40 post-immunization, mice from each group are sacrificed with an overdose of ketamine/xylazine. Spinal cords are dissected, fixed in 10% buffered formalin, and embedded in paraffin. Five micron thick sections are stained with Hematoxylin and Eosin (H&E) and Luxol Fast Blue (LFB) to assess myelin loss. Bielshowesky's silver impregnation is used to evaluate axonal integrity. To asses the amount of axonal loss, paraffin sections are exposed to monoclonal antibodies against mouse non-phosphorylated neurofilament H (Clone SMI-32, Stemberger Monoclonals, Baltimore, USA) and monoclonal antibodies against APP (Clone 22C11, Chemicon). SMI-32 is detected with a Cy3-labeled antibody and visualized by fluorescence microscopy. Anti-APP antibodies are detected by incubation with ColonoPAP, and APP-positive axons are visualized with 3,3′-diaminobenzidine (DAB).
The percentage of the spinal cord showing damage was determined in the cervical, thoracic and lumbar cord. At each level, regions in the 1) dorsal columns and 2) the lateral and ventral white matter tracts containing damaged fibers was circumscribed on photomontages (final magnification ×100) of the entire spinal cord. Damaged areas in each of the two regions were measured using a SummaSketch III (Summagraphics, Seymour, Conn.) digitizing tablet and BIOQUANT Classic 95 software (R&M Biometrics, Nashville, Tenn.). Measurements were also be made of the total area (damaged and nondamaged) of the 1) dorsal columns and 2) the lateral and ventral columns. For each section (one section per animal), the cumulative percent lesion areas were calculated for each region (dorsal column, lateral and ventral columns).

Test [3] concerns Experimental autoimmune encephalomyelitis (EAE) in SJL/J mice. As to conditions: FK506 5 mg/kg/day.
Another test has as its system S. cerevisiae. In words: Yeast replicative lifespan. Type of test: cell-based. As to conditions: 10 μM; 2% (w/v) glucose YPD; untreated 100%. On the procedure:
Average lifespan for wild type, 22.9 generations, quercetin, 23.4; piceatannol. […]
All yeast strains were grown at 30° C. in complete yeast extract/bactopeptone, 2.0% (w/v) glucose (YPD) medium except where stated otherwise. Calorie restriction was induced in 0.5% glucose. Synthetic complete (SC) medium consisted of 1.67% yeast nitrogen base, 2% glucose, 40 mg/litre each of auxotrophic markers. SIR2 was integrated in extra copy and disrupted as described^5. Other strains are described elsewhere^26. For cellular deacetylation assays, HeLa S3 cells were used. U20S osteosarcoma and human embryonic kidney (HEK 293) cells were cultured adherently in Dulbecco's Modified Eagle's Medium (DMEM) containing 10% fetal calf serum (FCS) with 1.0% glutamine and 1.0% penecillin/streptomycin. HEK 293 overexpressing dominant negative SIRT1 H363Y was a gift of R. Frye (U. Pittsburgh).
Lifespan measurements were performed using PSY316AT MATα as previously described^35. All compounds for lifespan analyses were dissolved in 95% ethanol and plates were dried and used within 24 hours. Prior to lifespan analysis, cells were pre-incubated on their respective media for at least 15 hours. Following transfer to a new plate, cells were equilibrated on the medium for a minimum of 4 hours prior to micro-manipulating them. At least 30 cells were examined per experiment and each experiment was performed at least twice. Statistical significance of lifespan differences was determined using the Wilcoxon rank sum test. Differences are stated to be significant when the confidence is higher than 95%.

Test [4] concerns the target p53-382 acetylated peptide (human) (UniProt P04637).

Consider `COc1ccc(/C=C/c2cc(O)cc(O)c2)cc1` [BML-233, 3,5-Dihydroxy-4′-methoxy-trans-stilbene], for which, at recombinant human SIRT1, the “SIRT1 stimulating activity (in words)” value is given as “strong activator of sirtuins”. In addition, the “% change in C. elegans lifespan relative to untreated organisms” value with C. elegans ((10)) amounted to 70%; in the test on C. elegans ((500)), 50%. Moreover, the “activated SIRT1” value in test [1] is recorded as 2.1 fold.

Turning to `C=CC[C@@H]1/C=C(\C)C[C@H](C)C[C@H](OC)[C@H]2O[C@@](O)(C(=O)C(=O)N3CCCC[C@H]3C(=O)O[C@H](/C(C)=C/[C@@H]3CC[C@@H](O)[C@H](OC)C3)[C@H](C)[C@@H](O)CC1=O)[C@H](C)C[C@@H]2OC` [FK506], in test [2], the “reduction of extent of damage in dorsal, lateral and ventral white matter” value is reported as “over 90%”. In test [3] (vehicle 23.00), the “Mean EAE Score - Last 10 Days” value is on record as 7.75. Besides, in test [3] (vehicle 72.38), the “Mean total EAE score” value is given as 25.38.

`Oc1cc(O)cc(/C=C/c2ccccc2)c1` [Pinosylvin, 3,5-Dihydroxy-trans-stilbene]: the “SIRT1 stimulating activity (in words)” value is on record as “did the least to decrease activity” at recombinant human SIRT1 and “did not significantly diminish the SIRT1 activating effect” on recombinant human SIRT1 (listed as pinosylvin). For the same molecule, in the test with S. cerevisiae, the “% change in yeast replicative lifespan relative to untreated organisms (10 μM)” value amounted to 114%. Moreover, the “activated SIRT1” value in test [1] worked out at 3.28 fold.

For the molecule His6-tagged recombinant SIRT1 (enzyme), in test [4], the Km for the acetylated peptide (initial deacetylation rate, fluorescence) turned out to be 64 µM.
